Reference: patent US7432276B2, “ABCA1 elevating compounds” (CV Therapeutics, Inc., priority 2005, dated 2008)

Each molecule was assayed on ABCA1 mRNA (assay: ABCA1 mRNA induction in THP-1 cells, QuantiGene branched DNA assay). Settings: 10 μM test compound, 18-20 hours.
Type: cell-based
Protocol: Modulation of expression of ABCA1 mRNA levels by the compounds of the invention was determined in the following assays.
Induction of ABC1 in THP-1 cells, was measured using QuantiGene® branched DNA assay as per manufacturer's instructions. Cultures of THP-1 were grown to subconfluence in DMEM/10% FBS before replacement with DMEM/BSA and 10 and 3 μM concentrations of the test compounds in DMSO for 18-20 hours. After treatment of cells with compounds, the cells were lysed with lysis buffer at 37° C. for 20 minutes. The cell lysate and ABCA1 specific probe (Genospectra, Inc., Fremont, Calif.) mix were added to the 96 well capture plate and hybridized at 53° C. for 16-18 hours. The signal was amplified using the amplifier and label probes provided with the QuantiGene® assay followed by addition of a luminescent alkaline phosphatase substrate, dioxitane. Luminescence was quantified in Victor V plate reader.
Step 1 • Cells are lysed to release mRNA in the presence of target probes. Target mRNA from lysed cells was then captured by hybridization and transferred to the Capture Plate.
Step 2 • Signal amplification was performed by hybridization of the bDNA Amplifier and Label Probe.
Step 3 • Addition of chemiluminescence substrate yielded a QuantiGene® signal proportional to the amount of mRNA present in the sample.
Table 1 presents the relative fold increase in ABCA1 expression over DMSO for various compounds of the invention when tested at a concentration of […].

Compared with `CCS(=O)(=O)N1CCN(C(=O)c2cnn(-c3ccc4c(c3)C(C)(C)[C@H]3COc5cccc(F)c5[C@H]3N4)c2C)CC1` [Number 144, 1-((6aR,12aS)-6a,7,12,12a-tetrahydro-1-fluoro-7,7-dimethyl-6H-chromeno[4,3-b]quinolin-9-yl)-5-methyl-1H-pyrazole-4-((4-ethanesulfonylpiperazin-1-yl)methanone)], `CCS(=O)(=O)N1CCN(C(=O)c2coc(-c3ccc4c(c3)C(C)(C)[C@H]3COc5cccc(OC)c5[C@H]3N4)n2)CC1` [Number 147, 2-((6aR,12aS)-1-methoxy-6a,7,12,12a-tetrahydro-7,7-dimethyl-6H-chromeno[4,3-b]quinolin-9-yl)oxazole-(4-(4-ethanesulfonylpiperazin-1-yl)methanone)] is higher in “ABCA1 Induction Fold Increase over DMSO Vehicle” value (“ABCA1 Induction Fold Increase” for short): 2.1 FOLD INCREASE for the first, 7 FOLD INCREASE for the second.

Going from `COc1cccc2c1OC[C@@H]1[C@H]2Nc2ccc(C(C)C)cc2C1(C)C` [Number 46, (6aS,12aR)-4-methoxy-7,7-dimethyl-9-(methylethyl)-7,12,12a,6a-tetrahydrochromano[4,3-b]quinoline] to `COc1cccc2c1OC[C@@H]1[C@@H]2Nc2ccc(C(C)C)cc2C1(C)C` [Number 47, (12aS,6aS)-4-methoxy-7,7-dimethyl-9-(methylethyl)-7,12,12a,6a-tetrahydrochromano[4,3-b]quinoline], the “ABCA1 Induction Fold Increase” value falls from 4.2 FOLD INCREASE to 3.6 FOLD INCREASE.

Compared with `CC1(C)c2cc(C(O)(C(F)(F)F)C(F)(F)F)ccc2NC2c3cc(C(=O)O)ccc3OCC21` (stereo not shown) [Number 16, 7,7-dimethyl-9-[2,2,2-trifluoro-1-hydroxy-1-(trifluoromethyl)ethyl]-7,12,12a,6a-tetrahydrochromano[4,3-b]quinoline-2-carboxylic acid], `CC1(C)c2cc(C(O)(C(F)(F)F)C(F)(F)F)ccc2N[C@@H]2c3cc(Br)ccc3OC[C@H]21` [Number 3, 2-((12aS,6aS)-2-bromo-7,7-dimethyl(7,12,12a,6a-tetrahydrochromano[4,3-b]quinolin-9-yl))-1,1,1,3,3,3-hexafluoropropan-2-ol] is higher in “ABCA1 Induction Fold Increase” value: 2.4 FOLD INCREASE for the first, 3.0 FOLD INCREASE for the second.

First: COc1cccc2c1[C@H]1Nc3ccc(-c4ccc(C(F)(F)F)cc4)cc3C(C)(C)[C@@H]1CO2 [Number 93, (12aS,6aS)-1-methoxy-7,7-dimethyl-9-[4-(trifluoromethyl)phenyl]-7,12,12a,6a-tetrahydrochromano[4,3-b]quinoline]
Second: COc1cccc2c1[C@H]1Nc3ccc(-c4ccc(CO)cc4)cc3C(C)(C)[C@@H]1CO2 [Number 98, [4-((12aS,6aS)-1-methoxy-7,7-dimethyl-7,12,12a,6a-tetrahydrochromano[4,3-b]quinolin-9-yl)phenyl]methan-1-ol]
The “ABCA1 Induction Fold Increase” value of the first is higher: 6.8 FOLD INCREASE for the first, 5.2 FOLD INCREASE for the second.

Compared with `COc1cccc2c1[C@H]1Nc3ccc(-c4ccc(/C=C/C(=O)O)cc4)cc3C(C)(C)[C@H]1CO2` [Number 115, (2E)-3-[4-((12aS,6aR)-1-methoxy-7,7-dimethyl(7,12,12a,6a-tetrahydrochromano[4,3-b]quinolin-9-yl))phenyl]prop-2-enoic acid], `COc1cccc2c1[C@H]1Nc3ccc(-c4ccccc4)cc3C(C)(C)[C@@H]1CO2` [Number 94, (12aS,6aS)-1-methoxy-7,7-dimethyl-9-phenyl-7,12,12a,6a-tetrahydrochromano[4,3-b]quinoline] is higher in “ABCA1 Induction Fold Increase” value: 2.2 FOLD INCREASE for the first, 5.8 FOLD INCREASE for the second.

Compared with `COc1cccc2c1OC[C@@H]1[C@H]2Nc2ccc(OC(F)(F)F)cc2C1(C)C` [Number 52, ((6aS,12aR)-4-methoxy-7,7-dimethyl(7,12,12a,6a-tetrahydrochromano[4,3-b]quinolin-9-yloxy))trifluoromethane], `COc1cccc2c1OC[C@@H]1[C@H]2Nc2ccc(CCC(=O)O)cc2C1(C)C` [Number 27, 3-((6aS,12aR)-4-methoxy-7,7-dimethyl-7,12,12a,6a-tetrahydrochromano[4,3-b]quinolin-9-yl)propanoic acid] is lower in “ABCA1 Induction Fold Increase” value: 9.5 FOLD INCREASE for the first, 3.3 FOLD INCREASE for the second.

Going from `CC(C)=CCOC(=O)c1ccc2c(c1)OCC1C2Nc2ccc(C(O)(C(F)(F)F)C(F)(F)F)cc2C1(C)C` (stereo not shown) [Number 12, 3-methylbut-2-enyl 7,7-dimethyl-9-[2,2,2-trifluoro-1-hydroxy-1-(trifluoromethyl)ethyl]-7,12,12a,6a-tetrahydrochromano[4,3-b]quinoline-3-carboxylate] to `CC1(C)c2cc(C(O)(C(F)(F)F)C(F)(F)F)ccc2NC2c3cc(Br)ccc3OCC21` (stereo not shown) [Number 1, 2-(2-bromo-7,7-dimethyl(7,12,12a,6a-tetrahydrochromano[4,3-b]quinolin-9-yl))-1,1,1,3,3,3-hexafluoropropan-2-ol], the “ABCA1 Induction Fold Increase” value falls from 4.6 FOLD INCREASE to 4.4 FOLD INCREASE.

First: CCOP(=O)(Cc1ccc2c(c1)C(C)(C)C1COc3cccc(OC)c3C1N2)OCC (stereo not shown) [Number 90, diethoxy[(1-methoxy-7,7-dimethyl(7,12,12a,6a-tetrahydrochromano[4,3-b]quinolin-9-yl))methyl]phosphino-1-one]
Second: COc1cccc2c1C1Nc3ccc(C(O)(C(F)(F)F)C(F)(F)F)cc3C(C)(C)C1CO2 (stereo not shown) [Number 24, 1,1,1,3,3,3-hexafluoro-2-(1-methoxy-7,7-dimethyl(7,12,12a,6a-tetrahydrochromano[4,3-b]quinolin-9-yl))propan-2-ol]
The “ABCA1 Induction Fold Increase” value of the first is higher: 7.6 FOLD INCREASE for the first, 6.5 FOLD INCREASE for the second.

First: CCOc1cccc2c1OCC1C2Nc2ccc(C(N)=O)cc2C1(C)C (stereo not shown) [Number 30, 4-ethoxy-7,7-dimethyl-7,12,12a,6a-tetrahydrochromano[4,3-b]quinoline-9-carboxamide]
Second: Cc1cccc2c1OCC1C2Nc2ccc(C(N)=O)cc2C1(C)C (stereo not shown) [Number 29, 4,7,7-trimethyl-7,12,12a,6a-tetrahydrochromano[4,3-b]quinoline-9-carboxamide]
The “ABCA1 Induction Fold Increase” value of the first is lower: 5.3 FOLD INCREASE for the first, 5.8 FOLD INCREASE for the second.

Compared with `COc1ccc(Br)c2c1OCC1C2Nc2ccc(-c3cnco3)cc2C1(C)C` (stereo not shown) [Number 79, 1-bromo-4-methoxy-7,7-dimethyl-9-(1,3-oxazol-5-yl)-7,12,12a,6a-tetrahydrochromano[4,3-b]quinoline], `COc1ccccc1-c1ccc2c(c1)C(C)(C)C1COc3c(OC)cc(Cl)cc3C1N2` (stereo not shown) [Number 100, 1-(2-chloro-4-methoxy-7,7-dimethyl(7,12,12a,6a-tetrahydrochromano[4,3-b]quinolin-9-yl))-2-methoxybenzene] is lower in “ABCA1 Induction Fold Increase” value: 4.1 FOLD INCREASE for the first, 3.0 FOLD INCREASE for the second.

Same assay, conditions: Homo sapiens, 10 μM test compound, 18-20 hours, read-out: ABCA1 Induction Fold Increase over DMSO Vehicle

Compared with `CCOC(=O)c1cnn(-c2ccc3c(c2)C(C)(C)[C@H]2COc4cccc(OC)c4[C@H]2N3)c1C` [Number 116, ethyl 1-((6aR,12aS)-6a,7,12,12a-tetrahydro-1-methoxy-7,7-dimethyl-6H-chromeno[4,3-b]quinolin-9-yl)-5-methyl-1H-pyrazole-4-carboxylate], `COc1cc(I)cc2c1OC[C@@H]1[C@@H]2Nc2ccc(-n3ncc(C(=O)O)c3C)cc2C1(C)C` [Number 177, 1-((6aS,12aS)-6a,7,12,12a-tetrahydro-2-iodo-4-methoxy-7,7-dimethyl-6H-chromeno[4,3-b]quinolin-9-yl)-5-methyl-1H-pyrazole-4-carboxylic acid] is lower in fold induction at 10 µM: 2.7 for the first, 2.6 for the second.

First: CCOP(=O)(Cc1ccc2c(c1)C(C)(C)[C@@H]1COc3c(OC)cc(Br)cc3[C@H]1N2)OCC [Number 179, diethyl((6aS,12aS)-2-bromo-6a,7,12,12a-tetrahydro-4-methoxy-7,7-dimethyl-6H-chromeno[4,3-b]quinolin-9-yl)methylphosphonate]
Second: CCOP(=O)(Cc1ccc2c(c1)C(C)(C)C1COc3cccc(OC)c3C1N2)OCC (stereo not shown) [Number 180, diethyl(6a,7,12,12a-tetrahydro-1-methoxy-7,7-dimethyl-6H-chromeno[4,3-b]quinolin-9-yl)methylphosphonate]
The fold induction at 10 µM of the first is higher: 5.2 for the first, 2.2 for the second.

Compared with `COC(=O)c1ccc2c(c1)C(C)(C)[C@H]1COc3c(OC)cc(-c4c(C)noc4C)cc3[C@H]1N2` (racemic) [Number 162, (6aR,12aS)-methyl 6a,7,12,12a-tetrahydro-4-methoxy-7,7-dimethyl-2-(3,5-dimethylisoxazol-4-yl)-6H-chromeno[4,3-b]quinoline-9-carboxylate], `COc1cc(-c2cn[nH]c2)cc2c1OC[C@H]1[C@@H]2Nc2ccc(C#N)cc2C1(C)C` [Number 182, (6aR,12aS)-6a,7,12,12a-tetrahydro-4-methoxy-7,7-dimethyl-2-(1H-pyrazol-4-yl)-6H-chromeno[4,3-b]quinoline-9-carbonitrile] is lower in fold induction at 10 µM: 7.7 for the first, 4.6 for the second.

Going from `CC1(C)c2cc(C(=O)N3CCNCC3)ccc2N[C@@H]2c3c(F)cccc3OC[C@@H]21` [Number 130, ((6aR,12aS)-1-fluoro-6a,7,12,12a-tetrahydro-7,7-dimethyl-6H-chromeno[4,3-b]quinolin-9-yl)(piperazin-1-yl)methanone] to `COc1cccc2c1[C@@H]1[C@H](CO2)C(C)(C)c2ccccc2N1C(C)C` [Number 155, (6aR,12aS)-6a,7,12,12a-tetrahydro-12-isopropyl-1-methoxy-7,7-dimethyl-6H-chromeno[4,3-b]quinoline], the fold induction at 10 µM falls from 4.2 to 2.7.
